{"source": "the supplement of paper PMC11208160"}
{"experiment": "recombinant barcode read abundance after kanamycin selection (control-corrected) (log10(CPM+1)); higher = more efficient recombination; sequences stand for … in AGTGCAGAGAAAATCGGCCAGTTTTCTCTGCCTGCAGTCCGCATGCCGT…AGATTTATGCAGCGGACTGCCTTTCTCCCAAAGTGATAAACCGGACAGTATCATGGACCGGTTTTCCCGGTAATCCGTATTTGCAAGGTTGGTTTCACT; site = the 11-nt target", "how_it_was_run": "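Pooled E. coli screen pairing targets with IS621 bridge RNA target-binding loops. Each oligo (promoter, target, barcode, J23119-driven first 104 bridge RNA bases) was Gibson-cloned into a vector with the remaining 73 bp and T7-inducible recombinase, then co-electroporated with a donor plasmid. Two replicates each were plated on chloramphenicol/ampicillin LB agar (control) or chloramphenicol/ampicillin/kanamycin with 0.1 mM IPTG. Recombination efficiency is recombinant-junction barcode counts as CPM, averaged, control-corrected, reported as log10(CPM+1).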"}
{"sequence": "CCTGCGACTTGGGTTCTAACCTGTTGCAC (site AAGCACCCTCA)", "recombinant barcode read abundance (log10)": 0.185}
{"sequence": "CCTGCGACTTGGGTTCTAACCTGTTGCAC (site CCTGCGACTGT)", "recombinant barcode read abundance (log10)": 0.219}
{"sequence": "CCTGCGGCTTGGGTTCTAACCTGTTGCCT (site CCTGCGACTAG)", "recombinant barcode read abundance (log10)": 0.0127}
{"sequence": "CCTGCGGCTTGGGTTCTAACCTGTTGCCT (site CCTGCGGCTAG)", "recombinant barcode read abundance (log10)": 0.15}
{"sequence": "CCTGGAACTTGGGTTCTAACCTGTTGCTT (site CCTGGAACTAA)", "recombinant barcode read abundance (log10)": 0.418}
{"sequence": "CCTGGAACTTGGGTTCTAACCTGTTGCTT (site CCTGGAGCTAT)", "recombinant barcode read abundance (log10)": 0.333}
{"sequence": "CCTGGACCTTGGGTTCTAACCTGTTGCGT (site CCTGGACCTAC)", "recombinant barcode read abundance (log10)": 2.06}
{"sequence": "CCTGGACCTTGGGTTCTAACCTGTTGCGT (site CCTGGGCCTAA)", "recombinant barcode read abundance (log10)": 0.0265}
{"sequence": "CCTGGAGCTTGGGTTCTAACCTGTTGCAT (site CCTGGAACTAA)", "recombinant barcode read abundance (log10)": 0.266}
{"sequence": "CCTGGAGCTTGGGTTCTAACCTGTTGCAT (site CCTGGAGCTAT)", "recombinant barcode read abundance (log10)": 0.654}
{"sequence": "CCTGGCACTTGGGTTCTAACCTGTTGCAG (site CCTGAGACTCT)", "recombinant barcode read abundance (log10)": 0}
{"sequence": "CCTGGCACTTGGGTTCTAACCTGTTGCAG (site CCTGGCACTCT)", "recombinant barcode read abundance (log10)": 1.96}
{"sequence": "CCTGGGACTTGGGTTCTAACCTGTTGCTA (site ATGATACCTAT)", "recombinant barcode read abundance (log10)": 0.186}
{"sequence": "CCTGGGACTTGGGTTCTAACCTGTTGCTA (site CCTGGGACTTA)", "recombinant barcode read abundance (log10)": 2.03}
{"sequence": "CCTGGTCCTTGGGTTCTAACCTGTTGCAT (site CCTGGACCTAA)", "recombinant barcode read abundance (log10)": 0.195}
{"sequence": "CCTGGTCCTTGGGTTCTAACCTGTTGCAT (site CCTGGTCCTAT)", "recombinant barcode read abundance (log10)": 1.42}
{"sequence": "CCTTAGTCTTGGGTTCTAACCTGTTGCAG (site ACATAGTCTCT)", "recombinant barcode read abundance (log10)": 0.169}
{"sequence": "CCTTAGTCTTGGGTTCTAACCTGTTGCAG (site CCTTAGTCTCT)", "recombinant barcode read abundance (log10)": 1.15}
{"sequence": "CCTTCCACTTGGGTTCTAACCTGTTGCCT (site ACTTCCACTAG)", "recombinant barcode read abundance (log10)": 0.00909}
{"sequence": "CCTTCCACTTGGGTTCTAACCTGTTGCCT (site CCTTCCACTAG)", "recombinant barcode read abundance (log10)": 0.285}
{"sequence": "CCTTCCACTTGGGTTCTAACCTGTTGCCT (site GCTTCCACTAG)", "recombinant barcode read abundance (log10)": 0.0418}
{"sequence": "CCTTCCACTTGGGTTCTAACCTGTTGCCT (site TCTTCCACTAG)", "recombinant barcode read abundance (log10)": 0.0607}
{"sequence": "CCTTCCTCTTGGGTTCTAACCTGTTGCCT (site CATTCCTCTAG)", "recombinant barcode read abundance (log10)": 0.018}
{"sequence": "CCTTCCTCTTGGGTTCTAACCTGTTGCCT (site CCTTCCTCTAG)", "recombinant barcode read abundance (log10)": 0.599}
{"sequence": "CCTTCCTCTTGGGTTCTAACCTGTTGCCT (site CGTTCCTCTAG)", "recombinant barcode read abundance (log10)": 0.0856}
{"sequence": "CCTTCCTCTTGGGTTCTAACCTGTTGCCT (site CTTTCCTCTAG)", "recombinant barcode read abundance (log10)": 0}
{"sequence": "CCTTGGACTTGGGTTCTAACCTGTTGCCT (site CCTTGCTCTAG)", "recombinant barcode read abundance (log10)": 0.084}
{"sequence": "CCTTGGACTTGGGTTCTAACCTGTTGCCT (site CCTTGGACTAG)", "recombinant barcode read abundance (log10)": 0.427}
{"sequence": "CCTTTGTCTTGGGTTCTAACCTGTTGCTT (site CCTTTGACTAA)", "recombinant barcode read abundance (log10)": 0.155}
{"sequence": "CCTTTGTCTTGGGTTCTAACCTGTTGCTT (site CCTTTGTCTAA)", "recombinant barcode read abundance (log10)": 0.243}
{"sequence": "CGAAAATCTTGGGTTCTAACCTGTTGCCT (site CGAAAATCTAG)", "recombinant barcode read abundance (log10)": 0.0664}
{"sequence": "CGAAAATCTTGGGTTCTAACCTGTTGCCT (site CGCAAATCTAG)", "recombinant barcode read abundance (log10)": 1.33}
{"sequence": "CGAAAATCTTGGGTTCTAACCTGTTGCCT (site CGGAAATCTAG)", "recombinant barcode read abundance (log10)": 0.18}
{"sequence": "CGAAAATCTTGGGTTCTAACCTGTTGCCT (site CGTAAATCTAG)", "recombinant barcode read abundance (log10)": 0.128}
{"sequence": "CGAAGCTCTTGGGTTCTAACCTGTTGCCT (site CGAAGCTCTAG)", "recombinant barcode read abundance (log10)": 1.44}
{"sequence": "CGAAGCTCTTGGGTTCTAACCTGTTGCCT (site CGCAGCTCTAG)", "recombinant barcode read abundance (log10)": 0.211}
{"sequence": "CGAAGCTCTTGGGTTCTAACCTGTTGCCT (site CGGAGCTCTAG)", "recombinant barcode read abundance (log10)": 0.108}
{"sequence": "CGAAGCTCTTGGGTTCTAACCTGTTGCCT (site CGTAGCTCTAG)", "recombinant barcode read abundance (log10)": 0.223}
{"sequence": "CGAATCCCTTGGGTTCTAACCTGTTGCCT (site CGAATCACTAG)", "recombinant barcode read abundance (log10)": 0.107}
{"sequence": "CGAATCCCTTGGGTTCTAACCTGTTGCCT (site CGAATCCCTAG)", "recombinant barcode read abundance (log10)": 0.809}
{"sequence": "CGAATCCCTTGGGTTCTAACCTGTTGCCT (site CGAATCGCTAG)", "recombinant barcode read abundance (log10)": 0.0332}
{"sequence": "CGAATCCCTTGGGTTCTAACCTGTTGCCT (site CGAATCTCTAG)", "recombinant barcode read abundance (log10)": 0.117}
{"sequence": "CGACATCCTTGGGTTCTAACCTGTTGCCT (site CGACATCCTAG)", "recombinant barcode read abundance (log10)": 0.214}
{"sequence": "CGACATCCTTGGGTTCTAACCTGTTGCCT (site CGAGATCCTAG)", "recombinant barcode read abundance (log10)": 0.409}
{"sequence": "CGACCGACTTGGGTTCTAACCTGTTGCAG (site CGACCGACTCT)", "recombinant barcode read abundance (log10)": 0.42}
{"sequence": "CGACCGACTTGGGTTCTAACCTGTTGCAG (site CGATCGACTCT)", "recombinant barcode read abundance (log10)": 0.158}
{"sequence": "CGACGTACTTGGGTTCTAACCTGTTGCCT (site CGACGTACTAG)", "recombinant barcode read abundance (log10)": 0.151}
{"sequence": "CGACGTACTTGGGTTCTAACCTGTTGCCT (site CGCCGTACTAG)", "recombinant barcode read abundance (log10)": 0.226}
{"sequence": "CGACGTACTTGGGTTCTAACCTGTTGCCT (site CGGCGTACTAG)", "recombinant barcode read abundance (log10)": 0.0649}
{"sequence": "CGACGTACTTGGGTTCTAACCTGTTGCCT (site CGTCGTACTAG)", "recombinant barcode read abundance (log10)": 0}
{"sequence": "CGACTGACTTGGGTTCTAACCTGTTGCCT (site CGACTGACTAG)", "recombinant barcode read abundance (log10)": 0.229}
{"sequence": "CGACTGACTTGGGTTCTAACCTGTTGCCT (site CGTCTGACTTG)", "recombinant barcode read abundance (log10)": 0.0517}
{"sequence": "CGACTGCCTTGGGTTCTAACCTGTTGCGT (site CGAATGTCTAC)", "recombinant barcode read abundance (log10)": 0.527}
{"sequence": "CGACTGCCTTGGGTTCTAACCTGTTGCGT (site CGACTGCCTAC)", "recombinant barcode read abundance (log10)": 2.09}
{"sequence": "CGAGCAGCTTGGGTTCTAACCTGTTGCCT (site CGAGCAGCTAG)", "recombinant barcode read abundance (log10)": 0.395}
{"sequence": "CGAGCAGCTTGGGTTCTAACCTGTTGCCT (site CGCGCAGCTAG)", "recombinant barcode read abundance (log10)": 0.152}
{"sequence": "CGAGCAGCTTGGGTTCTAACCTGTTGCCT (site CGGGCAGCTAG)", "recombinant barcode read abundance (log10)": 0.519}
{"sequence": "CGAGCAGCTTGGGTTCTAACCTGTTGCCT (site CGTGCAGCTAG)", "recombinant barcode read abundance (log10)": 0.0197}
{"sequence": "CGAGGGTCTTGGGTTCTAACCTGTTGCCT (site CGAGGGACTAG)", "recombinant barcode read abundance (log10)": 0.0535}
{"sequence": "CGAGGGTCTTGGGTTCTAACCTGTTGCCT (site CGAGGGCCTAG)", "recombinant barcode read abundance (log10)": 0.279}
{"sequence": "CGAGGGTCTTGGGTTCTAACCTGTTGCCT (site CGAGGGGCTAG)", "recombinant barcode read abundance (log10)": 0.0907}
{"sequence": "CGAGGGTCTTGGGTTCTAACCTGTTGCCT (site CGAGGGTCTAG)", "recombinant barcode read abundance (log10)": 1.87}
{"sequence": "CGAGGGTCTTGGGTTCTAACCTGTTGCTT (site AGAGGGTCTAA)", "recombinant barcode read abundance (log10)": 0.172}
{"sequence": "CGAGGGTCTTGGGTTCTAACCTGTTGCTT (site CGAGGGTCTAA)", "recombinant barcode read abundance (log10)": 1.82}
{"sequence": "CGAGGGTCTTGGGTTCTAACCTGTTGCTT (site GGAGGGTCTAA)", "recombinant barcode read abundance (log10)": 0.413}
{"sequence": "CGAGGGTCTTGGGTTCTAACCTGTTGCTT (site TGAGGGTCTAA)", "recombinant barcode read abundance (log10)": 0.147}
{"sequence": "CGAGGTTCTTGGGTTCTAACCTGTTGCCT (site CGAGGTTCTAG)", "recombinant barcode read abundance (log10)": 1.06}
{"sequence": "CGAGGTTCTTGGGTTCTAACCTGTTGCCT (site CGCGGTTCTAG)", "recombinant barcode read abundance (log10)": 0.212}
{"sequence": "CGAGTCCCTTGGGTTCTAACCTGTTGCAG (site ATCTAAACTAG)", "recombinant barcode read abundance (log10)": 0.137}
{"sequence": "CGAGTCCCTTGGGTTCTAACCTGTTGCAG (site CGAGTCCCTCT)", "recombinant barcode read abundance (log10)": 2.15}
{"sequence": "CGAGTGTCTTGGGTTCTAACCTGTTGCTA (site CGAGTGTCTTA)", "recombinant barcode read abundance (log10)": 1.96}
{"sequence": "CGAGTGTCTTGGGTTCTAACCTGTTGCTA (site GATCACCCTAT)", "recombinant barcode read abundance (log10)": 0.0951}
{"sequence": "CGATCATCTTGGGTTCTAACCTGTTGCCT (site CGATCATCTAG)", "recombinant barcode read abundance (log10)": 0.103}
{"sequence": "CGATCATCTTGGGTTCTAACCTGTTGCCT (site CGCTCATCTAG)", "recombinant barcode read abundance (log10)": 0.0503}
{"sequence": "CGATCATCTTGGGTTCTAACCTGTTGCCT (site CGGTCATCTAG)", "recombinant barcode read abundance (log10)": 0.173}
{"sequence": "CGATCATCTTGGGTTCTAACCTGTTGCCT (site CGTTCATCTAG)", "recombinant barcode read abundance (log10)": 0.0823}
{"sequence": "CGATCCACTTGGGTTCTAACCTGTTGCCT (site AGATCCACTAG)", "recombinant barcode read abundance (log10)": 0.0256}
{"sequence": "CGATCCACTTGGGTTCTAACCTGTTGCCT (site CGATCCACTAG)", "recombinant barcode read abundance (log10)": 0.0891}
{"sequence": "CGATCCACTTGGGTTCTAACCTGTTGCCT (site GGATCCACTAG)", "recombinant barcode read abundance (log10)": 1.56}
{"sequence": "CGATCCACTTGGGTTCTAACCTGTTGCCT (site TGATCCACTAG)", "recombinant barcode read abundance (log10)": 0.0673}
{"sequence": "CGATCTCCTTGGGTTCTAACCTGTTGCAC (site ACTCACTCTAG)", "recombinant barcode read abundance (log10)": 0.0376}
{"sequence": "CGATCTCCTTGGGTTCTAACCTGTTGCAC (site CGATCTCCTGT)", "recombinant barcode read abundance (log10)": 0.303}
{"sequence": "CGATGACCTTGGGTTCTAACCTGTTGCAT (site CGATGACCTAT)", "recombinant barcode read abundance (log10)": 1.48}
{"sequence": "CGATGACCTTGGGTTCTAACCTGTTGCAT (site CGATGGCCTAT)", "recombinant barcode read abundance (log10)": 0.107}
{"sequence": "CGATGGCCTTGGGTTCTAACCTGTTGCAT (site CGATGACCTAT)", "recombinant barcode read abundance (log10)": 0.388}
{"sequence": "CGATGGCCTTGGGTTCTAACCTGTTGCAT (site CGATGGCCTAT)", "recombinant barcode read abundance (log10)": 0.433}
